For orientation: IC50 means the concentration that gives 50% inhibition.

SMILES strings stand for the structures.

We go through 47 compounds from patent US20110306597A1, “Nicotinamide Derivatives” (priority 2008, published 2011).

human recombinant H-PGDS, sequence (O60760 whole entry): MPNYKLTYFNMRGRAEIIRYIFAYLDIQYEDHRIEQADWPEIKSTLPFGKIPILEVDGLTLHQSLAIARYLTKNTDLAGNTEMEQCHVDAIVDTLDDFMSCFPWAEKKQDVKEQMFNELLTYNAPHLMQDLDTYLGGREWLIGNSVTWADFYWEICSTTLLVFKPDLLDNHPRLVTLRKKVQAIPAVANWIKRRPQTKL

This assay addresses human recombinant H-PGDS (Homo sapiens, UniProt O60760). Briefly: Fluorescence Intensity h-PGDS TBA Enzyme Assay. Type of assay: biochemical. Particulars: 1:175,000 human recombinant H-PGDS, highest inhibitor concentration typically 1 μM. The method in brief: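 Readout is PGH2 depletion: after a 42 s reaction with 5.0 μM PGH2 and 2.5 mM glutathione (pH 8.0 Tris, 10 min inhibitor preincubation), Fe(II) converts leftover PGH2 to MDA, which forms a fluorescent TBA complex. IC50s come from 11-point, 3-fold duplicate curves, 4-parameter fit.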
Regarding `COc1cccc(-c2ccc(C(=O)Nc3cccnc3)cn2)c1` [Example 485, 6-(3-Methoxyphenyl)-N-pyridin-3-ylnicotinamide], the half-inhibitory concentration (IC50) worked out at 201 nM.
Consider `COc1cccc(-c2ccc(C(=O)NCCNc3ccccc3)cn2)c1` [Example 486, N-(2-Anilinoethyl)-6-(3-methoxyphenyl)nicotinamide], for which the IC50 was determined as 204 nM.
For `COc1cccc(-c2ccc(C(=O)NCCC3CCN(C)CC3)cn2)c1` [Example 487, 6-(3-Methoxyphenyl)-N-[2-(1-methylpiperidin-4-yl)ethyl]nicotinamide], the IC50 was no less than 1000 nM.
On to `Cc1cccc(-c2ccc(C(=O)Nc3cccnc3)cn2)c1` [Example 488, 6-(3-Methylphenyl)-N-pyridin-3-ylnicotinamide], for which the IC50 was found to be 11.4 nM.
Regarding `Cc1cccc(-c2ccc(C(=O)NCc3ccc(Br)cc3)cn2)c1` [Example 489, N-(4-Bromobenzyl)-6-(3-methylphenyl)nicotinamide], the half-maximal inhibitory concentration (IC50) came out at 214 nM.
Regarding `Cc1cccc(-c2ccc(C(=O)NCCNc3ccccc3)cn2)c1` [Example 490, N-(2-Anilinoethyl)-6-(3-methylphenyl)nicotinamide], the IC50 came out at 39.9 nM.
As for `Cc1ccccc1CNC(=O)c1ccc(-c2ccc(F)cc2)nc1` [Example 491, 6-(4-Fluorophenyl)-N-(2-methylbenzyl)nicotinamide], the IC50 worked out at 139 nM.
As to `CCC(C)NC(=O)c1ccc(-c2ccc(F)cc2)nc1` (centres unmarked) [Example 492, N-sec-Butyl-6-(4-fluorophenyl)nicotinamide], the IC50 was no less than 1000 nM.
For `O=C(NCCN1CCCCC1=O)c1ccc(-c2ccc(F)cc2)nc1` [Example 493, 6-(4-Fluorophenyl)-N-[2-(2-oxopiperidin-1-yl)ethyl]nicotinamide], the IC50 was 980 nM.
For `COC(=O)CCNC(=O)c1ccc(-c2ccc(F)cc2)nc1` [Example 494, Methyl N-{[6-(4-fluorophenyl)pyridin-3-yl]carbonyl}-beta-alaninate], the IC50 was determined as 758 nM.
For `CCOC(=O)C1(NC(=O)c2ccc(-c3ccc(F)cc3)nc2)CCOCC1` [Example 495, Ethyl 4-({[6-(4-fluorophenyl)pyridin-3-yl]carbonyl}amino)tetrahydro-2H-pyran-4-carboxylate], the IC50 was no less than 1000 nM.
Consider `Cc1noc(CCNC(=O)c2ccc(-c3ccc(F)cc3)nc2)n1` [Example 496, 6-(4-Fluorophenyl)-N-[2-(3-methyl-1,2,4-oxadiazol-5-yl)ethyl]nicotinamide], for which the IC50 was 429 nM.
Consider `COC(C)(C)CNC(=O)c1ccc(-c2ccc(F)cc2)nc1` [Example 497, 6-(4-Fluorophenyl)-N-(2-methoxy-2-methylpropyl)nicotinamide], for which the IC50 was no less than 1000 nM.
Consider `O=C(NCC1CCCCO1)c1ccc(-c2ccc(F)cc2)nc1` (centres unmarked) [Example 498, 6-(4-Fluorophenyl)-N-(tetrahydro-2H-pyran-2-ylmethyl)nicotinamide], for which the IC50 was no less than 1000 nM.
As for `O=C(NCc1ccccc1)c1ccc(-c2ccc(F)cc2)nc1` [Example 499, N-Benzyl-6-(4-fluorophenyl)nicotinamide], the IC50 is 321 nM.
Consider `COC(=O)CNC(=O)c1ccc(-c2ccc(F)cc2)nc1` [Example 500, Methyl N-{[6-(4-fluorophenyl)pyridin-3-yl]carbonyl}glycinate], for which the IC50 was no less than 1000 nM.
Next, `CC(C)[C@H](N)C(=O)NC(=O)c1ccc(-c2ccc(F)cc2)nc1` [Example 501, 6-(4-Fluorophenyl)-N-L-valylnicotinamide]: no less than 1000 nM; `CC(NC(=O)c1ccc(-c2ccc(F)cc2)nc1)c1ccncn1` (centres unmarked) [Example 502, 6-(4-Fluorophenyl)-N-(1-pyrimidin-4-ylethyl) nicotinamide]: no less than 1000 nM; `CC(C)NC(=O)c1ccc(-c2ccc(F)cc2)nc1` [Example 503, 6-(4-Fluorophenyl)-N-isopropylnicotinamide]: no less than 1000 nM.
Next, `CS(=O)(=O)c1ccc(CNC(=O)c2ccc(-c3ccc(F)cc3)nc2)cc1` [Example 504, 6-(4-Fluorophenyl)-N-[4-(methylsulfonyl)benzyl] nicotinamide]: 687 nM; `O=C(NCc1ccc(Br)cc1)c1ccc(-c2ccc(F)cc2)nc1` [Example 505, N-(4-Bromobenzyl)-6-(4-fluorophenyl)nicotinamide]: no less than 1000 nM.
Turning to `CCOC(=O)CC(NC(=O)c1ccc(-c2ccc(F)cc2)nc1)c1ccc(OC)cc1` (centres unmarked) [Example 506, Ethyl 3-({[6-(4-fluorophenyl)pyridin-3-yl]carbonyl}amino)-3-(4-methoxyphenyl)propanoate], the IC50 is no less than 1000 nM.
On to `O=C(NCCc1cccs1)c1ccc(-c2ccc(F)cc2)nc1` [Example 507, 6-(4-Fluorophenyl)-N-[2-(2-thienyl)ethyl]nicotinamide], for which the IC50 was 578 nM.
For the compound `O=C(NCCNc1ccccc1)c1ccc(-c2ccc(F)cc2)nc1` [Example 508, N-(2-Anilinoethyl)-6-(4-fluorophenyl)nicotinamide], the IC50 came to 412 nM.
Take `COC(=O)[C@H](Cc1ccc(Cl)cc1)NC(=O)c1ccc(-c2ccc(F)cc2)nc1` [Example 509, Methyl 4-chloro-N-{[6-(4-fluorophenyl)pyridin-3-yl]carbonyl}phenylalaninate]: the IC50 is no less than 1000 nM.
As for `COc1cccc(-c2ccc(C(=O)NCc3nnc(-c4cccnc4)[nH]3)cn2)c1` [Example 510, 6-(3-Methoxyphenyl)-N-[(5-pyridin-3-yl-4H-1,2,4-triazol-3-yl)methyl]nicotinamide], the figure is 575 nM.
As for `COc1cccc(-c2ccc(C(=O)NCCN3CCCCC3)cn2)c1` [Example 511, 6-(3-methoxyphenyl)-N-(2-piperidin-1-ylethyl)nicotinamide], the IC50 was no less than 1000 nM.
Turning to `CC(C)[C@H](N)C(=O)NC(=O)c1ccc(-c2ccccc2)nc1` [Example 512, 6-Phenyl-N-L-valylnicotinamide], the IC50 was 359 nM.
For the compound `O=C(NCc1ccc(Br)cc1)c1ccc(-c2ccccc2)nc1` [Example 513, N-(4-Bromobenzyl)-6-phenylnicotinamide], the IC50 came out at 8.9 nM.
Consider `O=C(NCc1nnc(-c2cccnc2)[nH]1)c1ccc(-c2ccccc2)nc1` [Example 514, 6-Phenyl-N-[(5-pyridin-3-yl-4H-1,2,4-triazol-3-yl)methyl]nicotinamide], for which the IC50 stood at 5.2 nM.
On to `COc1ccc(NC(=O)c2ccc(-c3ccccc3)nc2)cc1OC` [Example 515, N-(3,4-Dimethoxyphenyl)-6-phenylnicotinamide], for which the IC50 stood at 0.95 nM.
As for `CC(NC(=O)c1ccc(-c2ccccc2)nc1)c1ccccc1` (centres unmarked) [Example 516, 6-Phenyl-N-(1-phenylethyl)nicotinamide], the IC50 worked out at 31.9 nM.
`O=C(NCc1ccc(Cl)cc1)c1ccc(-c2ccccc2)nc1` [Example 517, N-(4-Chlorobenzyl)-6-phenylnicotinamide]: the IC50 is 11.8 nM.
As for `CSc1ccc(CNC(=O)c2ccc(-c3ccccc3)nc2)cc1` [Example 518, N-[4-(Methylthio)benzyl]-6-phenylnicotinamide], the figure is 17.5 nM.
As to `COc1ccc(CNC(=O)c2ccc(-c3ccccc3)nc2)cc1` [Example 519, N-(4-Methoxybenzyl)-6-phenylnicotinamide], the IC50 stood at 8.3 nM.
Consider `O=C(NCCNc1ccccc1)c1ccc(-c2ccccc2)nc1` [Example 520, N-(2-Anilinoethyl)-6-phenylnicotinamide], for which the IC50 was determined as 8.8 nM.
For `O=C(Nc1ccc(F)cc1)c1ccc(-c2ccccc2)nc1` [Example 521, N-(4-Fluorophenyl)-6-phenylnicotinamide], the IC50 worked out at 4.82 nM.
As for `O=C(NCc1ccc(Cl)c(Cl)c1)c1ccc(-c2ccccc2)nc1` [Example 522, N-(3,4-Dichlorobenzyl)-6-phenylnicotinamide], the figure is 25 nM; as for `COC(=O)c1ccc(CNC(=O)c2ccc(-c3ccccc3)nc2)cc1` [Example 523, Methyl 4-({[(6-phenylpyridin-3-yl)carbonyl]amino}methyl) benzoate], 14.1 nM.
`O=C(NCc1nnc(-c2cccnc2)[nH]1)c1ccc(-c2cccc(F)c2)nc1` [Example 524, 6-(3-Fluorophenyl)-N-[(5-pyridin-3-yl-4H-1,2,4-triazol-3-yl)methyl]nicotinamide]: the IC50 stood at 9.36 nM.
For `O=C(NCC1CCCCO1)c1ccc(-c2cccc(F)c2)nc1` (centres unmarked) [Example 525, 6-(3-Fluorophenyl)-N-(tetrahydro-2H-pyran-2-ylmethyl)nicotinamide], the IC50 is 68.5 nM.
For the compound `CC(C)[C@H](N)C(=O)NC(=O)c1ccc(-c2cccc(F)c2)nc1` [Example 526, 6-(3-Fluorophenyl)-N-L-valylnicotinamide], the IC50 is 1510 nM.
Regarding `Cc1cccc(NC(=O)c2ccc(-c3ccccc3)nc2)c1C` [Example 527, N-(2,3-Dimethylphenyl)-6-phenylnicotinamide], the IC50 is 10.3 nM.
For the compound `O=C(NCC1COc2ccccc2C1)c1ccc(-c2cccc(F)c2)nc1` (centres unmarked) [Example 528, N-(3,4-Dihydro-2H-chromen-3-ylmethyl)-6-(3-fluorophenyl)nicotinamide], the IC50 was found to be 6.45 nM.
For the compound `Cc1ccc2c(c1)C(NC(=O)c1ccc(-c3cccc(F)c3)nc1)CC(C)(C)O2` (centres unmarked) [Example 530, 6-(3-Fluorophenyl)-N-(2,2,6-trimethyl-3,4-dihydro-2H-chromen-4-yl)nicotinamide], the IC50 is 3.03 nM.
For `Cc1ccc2c(c1C)OCCC2NC(=O)c1ccc(-c2cccc(F)c2)nc1` (centres unmarked) [Example 531, N-(7,8-Dimethyl-3,4-dihydro-2H-chromen-4-yl)-6-(3-fluorophenyl)nicotinamide], the IC50 came to 3.34 nM.
As for `Cc1cccc2c1OCCC2NC(=O)c1ccc(-c2cccc(F)c2)nc1` (centres unmarked) [Example 532, 6-(3-Fluorophenyl)-N-(8-methyl-3,4-dihydro-2H-chromen-4-yl)nicotinamide], the figure is 3.94 nM.
